Results from paper PMC7010297, “How the initiating ribosome copes with ppGpp to translate mRNAs” (PLoS Biology, 2020).
Several values for one entry are separate records, joined by “and”; a condition that tells them apart may be missing. Equal entries are not always repeated.

Assays:
[1] = molecular target: T1, 30S IC (30S-bound IF2, Bpy-tRNAi) (Escherichia coli, UniProt P0A705); assay: 30S IC formation measured by MST at increasing concentrations of IF2 with guanosine nucleotides; assay type: binding; conditions: Fig 2A
T1 construct: 6xHis (N); made in house
Excerpt: To monitor the interaction of initiator tRNA and 30S ribosomal subunits, we used Microscale Thermophoresis (MST) with a fluorescently labelled initiator tRNA (Bpy-tRNAi) (Fig 1B). MST allows to measure fluorescence in a constrained space. Changes on the readout derive from molecular drifts resulting from small thermal equilibrium perturbations. Upon equilibrium perturbations, the patterns of Bpy-tRNAi migration away from the observation space are related to bound and unbound states (Fig 1B). […] On the contrary, a decrease in thermophoresis indicated the dissociation of Bpy-tRNAi. The relation between fluorescence measured at both equilibriums (Ff to Fi, after and prior to the perturbation, respectively) as a function of ligand concentration allowed to determine dissociation constants of the interaction (Fig 1C).
(§1) Continuous lines indicate nonlinear regression fittings with a quadratic equation. Three measurements were performed; mean and standard deviation are plotted (S1 Data). (B) as (A) to measure the concentration dependence for each tested guanosine nucleotide at constant IF2 (1 μM). […] Continuous lines show best fits using exponential functions. (D) Formation of 70S IC as measured by Bpy-tRNAi accommodation in the P site of the ribosome; 0.1 μM 30S ICs were formed with Bpy-tRNAi and rapidly mixed with 0.3 μM 50S subunits on a stopped-flow apparatus as described in [14]. Colors are as in (C). Continuous lines show best fits using an exponential function for a single reaction step. Each stopped-flow trace results from the mean of 5 to 7 replicates.

70S IC = molecular target: T2, 70S IC (Escherichia coli, UniProt P0A705); assay: 70S IC formation by Bpy-tRNAi accommodation, stopped-flow; assay type: biochemical; parameters: K1, best-fit value: unit not given here; conditions: for A0, best-fit value / A1, best-fit value / K1, best-fit value / k2, best-fit value: fit Y=A0+A1*exp(-K1*x)+k2*x; for kfast (s-1) Avg: fluorescence
T2 construct: 6xHis (N); made in house
Protocol: as §1
(A) Scheme of 70S IC formation. […] Time traces were analyzed by nonlinear regression with exponential terms. […] Formation of 70S IC, as measured by Bpy-tRNAi accommodation in the absence (F) or presence of 200 μM ppGpp (G). Time traces were analyzed by nonlinear regression with one exponential term. […] Continuous lines show best fits using an exponential function for a single reaction step. All time traces are mean values of 5 to 10 replicates. Bar graphs show mean and standard errors (error bars) derived from the nonlinear regression fitting (D,E,H,I) (S1 Data).
To measure 70S pre-IC formation, a SX-20 stopped-flow instrument (Applied Photophysics, Leatherhead, UK) was set up for LS recording with an excitation wavelength of 430 nm. Scattered light was measured at an angle of 90° without a filter. Pseudo first-order conditions were approximated by using ≥3-fold excess of 50S subunits over 30S ICs; 0.2 μM 30S ICs were rapidly mixed in the instrument with 0.6 μM 50S at 25 °C. Bpy-tRNAi accommodation was measured essentially as described elsewhere. Briefly, 0.2 μM 30S ICs were formed using Bpy-tRNAi and rapidly mixed with 0.6 μM 50S at 25 °C. Fluorescence was excited at 470 nm and measured after a 495-nm longpass filter. Individual traces (6–11 traces) were averaged, and the resulting kinetic curve was approximated by single (F = A0 + A1*exp (-kapp1*t)) or double (F = A0 + A1*exp (-kapp1*t) + A2*exp (-kapp2*t)) exponential fit using Graphpad Prism 6.0 software (GraphPad, San Diego, California).

IF2 = molecular target: T3, IF2 (Escherichia coli, UniProt P0A705); assay: IF2-Bpy-tRNAi-GNP ternary complex formation by MST; assay type: binding; conditions: S2A Fig
T3 construct: 6xHis (N); made in house
Protocol: Supplementary file pbio.3000593.s002.pdf: S2 Fig IF2-Bpy-tRNAi complex formation as a function of guanosine nucleotides. (A) IF2 concentration dependencies for Bpy-tRNAi binding in the presence of 0.5 mM of the indicated guanosine nucleotides to build IF2-tRNA-GNP ternary complexes (TCs). […] Three to five measurements were performed; mean and standard deviation are plotted (S1 Data). […] (PDF) Click here for additional data file.

T1 sequence (P0A705 whole entry, looked up): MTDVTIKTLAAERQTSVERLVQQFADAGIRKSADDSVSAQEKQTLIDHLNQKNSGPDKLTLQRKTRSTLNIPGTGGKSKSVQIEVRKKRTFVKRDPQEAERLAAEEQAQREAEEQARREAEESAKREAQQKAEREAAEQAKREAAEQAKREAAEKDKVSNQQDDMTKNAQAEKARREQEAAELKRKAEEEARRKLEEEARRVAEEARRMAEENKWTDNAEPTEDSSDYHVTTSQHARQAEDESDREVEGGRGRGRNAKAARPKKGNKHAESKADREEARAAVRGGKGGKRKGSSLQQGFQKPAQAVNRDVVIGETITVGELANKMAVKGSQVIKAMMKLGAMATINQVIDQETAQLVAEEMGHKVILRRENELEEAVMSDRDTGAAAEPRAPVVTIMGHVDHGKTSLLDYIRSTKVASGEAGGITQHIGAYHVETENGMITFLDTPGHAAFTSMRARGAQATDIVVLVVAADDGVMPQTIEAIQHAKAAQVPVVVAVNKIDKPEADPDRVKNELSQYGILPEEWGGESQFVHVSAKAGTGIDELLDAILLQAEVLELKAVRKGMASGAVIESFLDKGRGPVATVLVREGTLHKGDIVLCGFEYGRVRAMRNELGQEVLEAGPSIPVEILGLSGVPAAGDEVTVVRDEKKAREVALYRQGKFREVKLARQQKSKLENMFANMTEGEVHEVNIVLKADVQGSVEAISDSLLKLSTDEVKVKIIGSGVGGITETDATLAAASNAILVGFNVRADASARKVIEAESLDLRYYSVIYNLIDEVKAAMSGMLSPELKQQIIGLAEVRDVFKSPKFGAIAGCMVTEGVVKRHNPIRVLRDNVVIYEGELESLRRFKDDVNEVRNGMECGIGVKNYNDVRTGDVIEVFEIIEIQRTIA
T3 sequence (P0A705 whole entry): as the sequence (P0A705 whole entry, looked up) above
T2 sequence (P0A705 whole entry, looked up): as above

In the case of `Nc1nc2c(ncn2[C@@H]2O[C@H](COP(=O)(O)OP(=O)(O)O)[C@@H](O)[C@H]2O)c(=O)[nH]1` [GDP, guanosine diphosphate], the “MST Average” value ([1]; IF2 0.16 µM) is reported as 936.66 a.u, the “MST Replicates (a.u.)” value ([1]; IF2 0.16 µM, in the presence of the nucleotide) is reported as 938.79 a.u. and 935.06 a.u. and 936.14 a.u and the “MST Average” value ([1]; IF2 0.31 µM) is reported as 942.67 a.u. The “MST Replicates (a.u.)” value ([1]; IF2 0.31 µM) was 943.24 a.u. and 941.18 a.u. and 943.58 a.u, the “MST Average” value ([1]; IF2 0.63 µM) was 949.91 a.u and the “MST Replicates (a.u.)” value ([1]; IF2 0.63 µM) was 951.36 a.u. and 947.80 a.u. and 950.56 a.u. The “MST Average” value ([1]; IF2 1.25 µM) was 961.16 a.u, the “MST Replicates (a.u.)” value ([1]; IF2 1.25 µM) was 962.03 a.u. and 959.55 a.u. and 961.91 a.u and the “MST Average” value ([1]; IF2 2.50 µM) was 966.51 a.u. The “MST Replicates (a.u.)” value ([1]; IF2 2.50 µM) was 967.31 a.u. and 965.43 a.u. and 966.81 a.u, the “MST Average” value ([1]; IF2 5.00 µM) was 968.29 a.u and the “MST Replicates (a.u.)” value ([1]; IF2 5.00 µM) was 968.72 a.u. and 967.06 a.u. and 969.08 a.u. For the same molecule, the “efficiency (amplitude) of 70S IC formation (Bpy-tRNAi accommodation)” value (70S IC; 0.2 mM nucleotide, no GTP) was “reduced efficiencies”, the “A0, best-fit value” (70S IC; mInfA) was 0.98 and the “A1, best-fit value” (70S IC; mInfA) was 0.0231. The “K1, best-fit value” (70S IC; mInfA) was 1.28, the “k2, best-fit value” (70S IC; mInfA) was -0.00069 and the “A0, best-fit value” (70S IC; mMF1) was 0.93. The “A1, best-fit value” (70S IC; mMF1) was 0.07, the “K1, best-fit value” (70S IC; mMF1) was 1.57 and the “k2, best-fit value” (70S IC; mMF1) was -0.00092. For the same molecule, the “Fluorescence Amplitude Avg” value (70S IC; mRNA mInfA) was 0.023, the “kfast (s-1) Avg” value (70S IC; mRNA mInfA) was 1.28 s⁻¹ and the “Fluorescence Amplitude Avg” value (70S IC; mRNA mMF1) was 0.067. For the same molecule, the “kfast (s-1) Avg” value (70S IC; mRNA mMF1) was 1.57 s⁻¹, the “Fluorescence Amplitude Avg” value (70S IC; mRNA mTufA) was 0.062 and the “kfast (s-1) Avg” value (70S IC; mRNA mTufA) was 2.65 s⁻¹. The “A0, best-fit value” (70S IC; mTufA) was 0.94, the “A1, best-fit value” (70S IC; mTufA) was 0.06 and the “K1, best-fit value” (70S IC; mTufA) was 2.65. For the same molecule, the “k2, best-fit value” (70S IC; mTufA) was -0.00072, the “MST Average” value (IF2; IF2 0.08 µM) was 942.60 a.u and the “MST Replicates” value (IF2; IF2 0.08 µM) was 949.60 a.u. and 944.98 a.u. and 933.23 a.u. The “MST Average” value (IF2; IF2 0.16 µM) was 942.82 a.u, the “MST Replicates” value (IF2; IF2 0.16 µM) was 948.93 a.u. and 934.15 a.u. and 945.38 a.u and the “MST Average” value (IF2; IF2 0.31 µM) was 943.82 a.u. For the same molecule, the “MST Replicates” value (IF2; IF2 0.31 µM) was 946.47 a.u. and 934.49 a.u. and 950.50 a.u, the “MST Average” value (IF2; IF2 0.63 µM) was 944.11 a.u and the “MST Replicates” value (IF2; IF2 0.63 µM) was 935.16 a.u. and 946.20 a.u. and 950.97 a.u. For the same molecule, the “MST Average” value (IF2; IF2 1.25 µM) was 945.61 a.u, the “MST Replicates” value (IF2; IF2 1.25 µM) was 951.42 a.u. and 947.72 a.u. and 937.68 a.u and the “MST Average” value (IF2; IF2 2.50 µM) was 948.90 a.u. The “MST Replicates” value (IF2; IF2 2.50 µM) was 941.84 a.u. and 953.50 a.u. and 951.35 a.u, the “MST Average” value (IF2; IF2 5.00 µM) was 954.49 a.u and the “MST Replicates” value (IF2; IF2 5.00 µM) was 948.07 a.u. and 955.91 a.u. and 959.48 a.u. The “MST Average” value (IF2; IF2 10.00 µM) was 962.55 a.u, the “MST Replicates” value (IF2; IF2 10.00 µM) was 958.33 a.u. and 964.33 a.u. and 964.97 a.u and the “MST Average” value (IF2; IF2 20.00 µM) was 973.27 a.u. For the same molecule, the “MST Replicates” value (IF2; IF2 20.00 µM) was 973.71 a.u. and 974.19 a.u. and 971.91 a.u, the “MST Average” value (IF2; IF2 40.00 µM) was 980.27 a.u and the “MST Replicates” value (IF2; IF2 40.00 µM) was 984.66 a.u. and 983.20 a.u. and 972.95 a.u.
